Assay results reported in publication PMC8343220, “The selectivity of α‐adrenoceptor agonists for the human α1A, α1B, and α1D‐adrenoceptors” (Pharmacology Research & Perspectives, 2021).

Columns and labels:
[1] = tested on: parental CHO cell line without any transfected receptors; test: Intracellular calcium mobilization, parent CHO cells without transfected receptors; format: cell-based, Chinese hamster
[2] = target: T1, human α1A‐adrenoceptor (Homo sapiens, UniProt P35348); test: ^3H‐prazosin whole‐cell radioligand binding, CHO‐α1A cells
T1 construct: expressed in transfected cells; host or cells: CHO-K1
T1 sequence (P35348 1-466): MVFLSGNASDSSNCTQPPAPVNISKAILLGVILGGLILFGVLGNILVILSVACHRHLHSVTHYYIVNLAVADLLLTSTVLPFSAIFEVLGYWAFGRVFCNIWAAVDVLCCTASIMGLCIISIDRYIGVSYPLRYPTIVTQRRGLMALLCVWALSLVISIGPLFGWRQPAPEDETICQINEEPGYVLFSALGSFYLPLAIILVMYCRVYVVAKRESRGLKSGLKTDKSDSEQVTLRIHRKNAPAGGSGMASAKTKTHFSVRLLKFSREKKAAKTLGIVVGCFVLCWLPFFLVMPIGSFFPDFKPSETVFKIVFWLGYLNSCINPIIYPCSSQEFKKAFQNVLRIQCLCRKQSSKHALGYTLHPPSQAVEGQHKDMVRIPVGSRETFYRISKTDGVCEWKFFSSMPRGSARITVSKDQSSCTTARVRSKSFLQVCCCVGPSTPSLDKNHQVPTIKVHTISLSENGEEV

[3] = target: T2, human α1B‐adrenoceptor (Homo sapiens, UniProt P35368); test: ^3H‐prazosin whole‐cell radioligand binding, CHO‐α1B cells
T2 construct: expressed in transfected cells; host or cells: CHO-K1
T2 sequence (P35368 1-520): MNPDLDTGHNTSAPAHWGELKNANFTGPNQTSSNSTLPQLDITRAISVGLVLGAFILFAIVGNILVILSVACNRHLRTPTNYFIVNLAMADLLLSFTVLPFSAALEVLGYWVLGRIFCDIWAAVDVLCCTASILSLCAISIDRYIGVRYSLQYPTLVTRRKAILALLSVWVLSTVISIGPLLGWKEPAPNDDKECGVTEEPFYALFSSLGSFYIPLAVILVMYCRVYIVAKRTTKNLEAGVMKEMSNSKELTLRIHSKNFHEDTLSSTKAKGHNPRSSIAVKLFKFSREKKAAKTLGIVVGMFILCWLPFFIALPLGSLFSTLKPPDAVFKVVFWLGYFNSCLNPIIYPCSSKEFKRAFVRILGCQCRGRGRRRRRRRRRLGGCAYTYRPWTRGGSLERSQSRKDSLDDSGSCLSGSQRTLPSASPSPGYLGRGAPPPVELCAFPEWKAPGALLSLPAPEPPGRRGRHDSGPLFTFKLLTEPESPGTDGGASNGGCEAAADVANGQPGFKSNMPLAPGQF

[4] = target: T3, human α1D‐adrenoceptor (full length) (Homo sapiens, UniProt P25100); test: ^3H‐prazosin whole‐cell radioligand binding, CHO‐α1D cells
T3 construct: human α1D‐adrenoceptor (full length) were used; expressed in transfected cells; host or cells: CHO-K1
T3 sequence (P25100 1-572): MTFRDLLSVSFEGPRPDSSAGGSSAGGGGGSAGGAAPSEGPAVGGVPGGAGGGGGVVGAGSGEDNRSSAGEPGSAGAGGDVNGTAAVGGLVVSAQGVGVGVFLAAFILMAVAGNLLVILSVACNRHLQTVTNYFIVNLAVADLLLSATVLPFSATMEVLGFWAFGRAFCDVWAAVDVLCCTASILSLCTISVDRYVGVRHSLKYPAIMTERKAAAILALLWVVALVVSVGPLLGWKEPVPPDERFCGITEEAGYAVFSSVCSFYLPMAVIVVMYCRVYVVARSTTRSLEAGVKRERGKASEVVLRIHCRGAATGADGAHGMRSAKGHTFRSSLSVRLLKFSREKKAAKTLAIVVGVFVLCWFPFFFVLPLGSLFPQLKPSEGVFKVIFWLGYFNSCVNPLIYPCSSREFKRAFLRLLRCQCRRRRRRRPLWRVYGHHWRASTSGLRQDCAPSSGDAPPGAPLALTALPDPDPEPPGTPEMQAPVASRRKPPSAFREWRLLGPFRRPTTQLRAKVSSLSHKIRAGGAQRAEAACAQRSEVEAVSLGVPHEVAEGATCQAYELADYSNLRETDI

[5] = target: T1, human α1A‐adrenoceptor; test: Intracellular free calcium mobilization, CHO‐α1A cells; format: cell-based
[6] = target: T2, human α1B‐adrenoceptor; test: Intracellular free calcium mobilization, CHO‐α1B cells; format: cell-based
[7] = target: T3, human α1D‐adrenoceptor (full length); test: Intracellular free calcium mobilization, CHO‐α1D cells; format: cell-based
[8] = target: T1, human α1A‐adrenoceptor; test: ERK1/2‐phosphorylation (Surefire Alphascreen), CHO‐α1A cells; format: cell-based
[9] = target: T2, human α1B‐adrenoceptor; test: ERK1/2‐phosphorylation (Surefire Alphascreen), CHO‐α1B cells; format: cell-based
[10] = target: T3, human α1D‐adrenoceptor (full length); test: ERK1/2‐phosphorylation (Surefire Alphascreen), CHO‐α1D cells; format: cell-based
[11] = target: T1, human α1A‐adrenoceptor; test: ^3H‐cAMP accumulation, CHO‐α1A cells; format: cell-based; conditions: CHO‐α1A cells
[12] = target: T2, human α1B‐adrenoceptor; test: ^3H‐cAMP accumulation, CHO‐α1B cells; format: cell-based; conditions: CHO‐α1B cells
[13] = target: T1, human α1A‐adrenoceptor; test: ^3H‐cAMP accumulation in the presence of 10 μM forskolin, CHO‐α1A cells; format: cell-based; conditions: CHO‐α1A cells; 10 μM forskolin
[14] = target: T2, human α1B‐adrenoceptor; test: ^3H‐cAMP accumulation in the presence of 10 μM forskolin, CHO‐α1B cells; format: cell-based; conditions: CHO‐α1B cells; in presence of forskolin

## C[C@H](CCC(=O)O)C[C@H](C)C[C@H](C)C(=O)/C=C(\O)[C@H](C)C[C@H](C)C/C=C/[C@@H](C)[C@@H](O)[C@@H](C)[C@@H](O)C[C@@H]1CC[C@@](C)([C@H]2CC[C@@](C)([C@@H](C)O)O2)O1 [Ionomycin]
[1]
  Calcium response fold over basal: 27.2 ± 1.2 fold over basal

## Nc1cc(Cl)c(N=C2NCCN2)c(Cl)c1 [para‐amino‐clonidine]
[2]
  Log KD α1A, ^3H‐prazosin whole cell binding: −6.23 ± 0.03
[3]
  Log KD α1B, ^3H‐prazosin whole cell binding: −5.17 ± 0.06
  Log KD, ^3H‐prazosin binding: −5.17
[4]
  3H‐prazosin binding Log KD: −5.39
  Log KD α1D, ^3H‐prazosin whole cell binding: −5.39 ± 0.16
[5]
  Intracellular calcium release % ionomycin: 52.0 ± 2.8%
  Intracellular calcium release Log EC50: −8.70 ± 0.09
[6]
  Intracellular calcium release % ionomycin: 33.7 ± 2.4%
  Intracellular calcium release Log EC50: −7.79 ± 0.05
[7]
  Intracellular calcium release % ionomycin: No response
  Intracellular calcium release Log EC50: No response
[8]
  ERK1/2‐phosphorylation % PDBu: 84.5 ± 4.9%
[9]
  ERK1/2‐phosphorylation % PDBu: 32.8 ± 6.9%
[10]
  ERK1/2‐phosphorylation % PDBu: No response
[11]; 5 h
  cAMP accumulation Log EC50: −6.76 ± 0.03
[11]; % of 10 µM forskolin response
  cAMP accumulation % forskolin: 26.6 ± 3.2%
[12]
  cAMP accumulation Log EC50: −7.48 ± 0.43
[12]; % forskolin maximum response
  cAMP accumulation % forskolin: 2.5 ± 0.6%
[13]
  cAMP accumulation (in presence of forskolin) Log EC50: −7.36 ± 0.05
[14]
  cAMP accumulation (in presence of forskolin) Log EC50: −7.31 ± 0.11
